Measured values as given in PubChem BioAssay (NCI).
Values joined by “and” are separate entries in the source; they are usually repeats but may differ in a detail not shown here. Equal values may be shown once.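 Method: 48-hour compound exposure of cells in 96-well plates, five concentrations, linear interpolation of endpoints. At the GI50, growth is halved. TGI: concentration producing complete growth inhibition.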

Experiments:
Experiment in all cases: NCI-60 cell line screen, 48 h
HCT-15 colon = tested on: HCT-15 colon
HCT-116 colon = tested on: HCT-116 colon
OVCAR-3 ovarian = tested on: OVCAR-3 ovarian
M14 melanoma = tested on: M14 melanoma
CCRF-CEM leukemia = tested on: CCRF-CEM leukemia
HL-60(TB) leukemia = tested on: HL-60(TB) leukemia
MCF7 breast = tested on: MCF7 breast
ACHN renal = tested on: ACHN renal
SF-268 CNS = tested on: SF-268 CNS
RXF 393 renal = tested on: RXF 393 renal

Row | Compound | TGI (HCT-15 colon) | TGI (HCT-116 colon) | TGI (OVCAR-3 ovarian) | TGI (M14 melanoma) | TGI (CCRF-CEM leukemia) | TGI (HL-60(TB) leukemia) | TGI (MCF7 breast) | TGI (ACHN renal) | TGI (SF-268 CNS) | TGI (RXF 393 renal) | GI50 (HCT-15 colon) | GI50 (HCT-116 colon) | GI50 (OVCAR-3 ovarian) | GI50 (M14 melanoma) | GI50 (CCRF-CEM leukemia) | GI50 (HL-60(TB) leukemia) | GI50 (MCF7 breast) | GI50 (ACHN renal) | GI50 (SF-268 CNS) | GI50 (RXF 393 renal)
1 | CCOc1ccc2nc(NC(=O)C(=O)C(C(=O)c3ccccc3-c3ccccc3)C3OC(=O)c4ccccc43)sc2c1 (stereo not given) | > 62.4 µM | 33.7 µM | 89.8 µM | > 67.2 µM | 64.2 µM | 68.7 µM | > 100 µM | > 100 µM | 79.5 µM | 18.1 µM |  |  |  |  |  |  |  |  |  | 
2 | C=CC(=O)Nc1ccc(Nc2nccc(-c3ccc(N4CCCC4)c(C#N)c3)n2)cc1 | 10.3 µM | > 25 µM | > 25 µM | > 25 µM | > 25 µM | > 25 µM | > 25 µM | > 25 µM | > 25 µM | 1.71 µM | 1.17 µM | 6.03 µM | > 25 µM | 22.8 µM | 13.8 µM | 4.88 µM | 9.55 µM | 2.45 µM | 15.8 µM | 0.545 µM
3 | OCCOc1ccc(-c2cc(-c3ccccn3)nc(-c3ccccn3)c2)cc1 | > 40.6 µM | > 43.7 µM | 6.67 µM | 3.91 µM | 40.4 µM | 0.494 µM | > 100 µM | 3.78 µM | > 100 µM | 0.85 µM |  |  |  |  |  |  |  |  |  | 
4 | CC/C(Cc1ccccc1)=C(\c1ccc(OCCN2CCCCCC2)cc1)c1ccc(OC(=O)NCc2ccccc2)cc1 | 2.94 µM | 1.63 µM | 7.13 µM | 2.55 µM | 5.72 µM | 3.44 µM | 5.33 µM | 5.34 µM | 11.3 µM | 3.35 µM | 1.07 µM | 0.895 µM | 1.86 µM | 1.06 µM | 1.56 µM | 1.18 µM | 0.25 µM | 1.49 µM | 4.23 µM | 1.31 µM
5 | CC1=NN(C(=O)c2ccccc2O)C(=O)/C1=C/c1ccc([N+](=O)[O-])cc1 |  |  | 7.05 µM and 1.32 µM | 40.7 µM |  |  | > 100 µM | > 100 µM | > 100 µM |  | 0.932 µM | 0.328 µM | 1.98 µM | 3.01 µM | 0.259 µM | 1.08 µM | 0.392 µM | 0.545 µM | 0.444 µM | 0.263 µM
6 | CNC(=O)c1cc(COc2nnc(Nc3ccc(Cl)cc3)c3ccoc23)ccn1 | 52.4 µM and > 10 µM | 11.3 µM and > 10 µM | 26.4 µM and > 10 µM | 54.9 µM and > 10 µM | > 79.5 µM | > 100 µM | 36.1 µM and > 10 µM | 15.4 µM and > 10 µM | 26.2 µM and > 10 µM | 11 µM and > 10 µM | 12.6 µM and > 10 µM | 3.32 µM and > 10 µM | 11.1 µM and > 10 µM | 15.7 µM and > 10 µM | 26.9 µM and > 10 µM | > 100 µM | 7.17 µM and > 10 µM | 3.86 µM and 7.18 µM | 4.66 µM and > 10 µM | 2.99 µM and 9.09 µM
7 | Cc1c2cnccc2c(C)c2c1c1cc(C3OCCCO3)ccc1n2C | 1.4 µM | 1.05 µM | 2 µM | 1.16 µM | 3.81 µM | 1.77 µM | 1.35 µM | 2.04 µM | 1.71 µM | 0.921 µM | 0.281 µM | 0.0472 µM | 0.419 µM | 0.317 µM | 0.291 µM | 0.375 µM | 0.255 µM | 0.318 µM | 0.268 µM | 0.172 µM
8 | CO[C@H](C(=O)[C@@H](O)[C@@H](C)O)[C@@H]1Cc2cc3cc(O[C@H]4C[C@@H](O[C@H]5C[C@@H](O)[C@H](O)C(C)O5)[C@H](O)C(C)O4)c(C)c(O)c3c(O)c2C(=O)[C@H]1O[C@H]1C[C@@H](O[C@H]2C[C@@H](O[C@H]3C[C@@H](OC)[C@H](O)C(C)O3)[C@@H](O)C(C)O2)C(O)(O)C(C)O1 (stereo not given in full) | > 25 µM | > 25 µM | 7.23 µM | 6.18 µM | > 25 µM | > 25 µM | > 9.61 µM | > 25 µM | > 25 µM | 0.306 µM | 2.65 µM | 0.035 µM | 0.24 µM | 0.275 µM | 0.138 µM | 2.94 µM | 0.0108 µM | 0.191 µM | 0.128 µM | 0.0525 µM
9 | Cn1cc(-c2nonc2-c2c[nH]c3ccccc23)c2ccccc21 | 11.3 µM | 10.5 µM | 2.01 µM | 12 µM | 27.9 µM | 0.731 µM | 15.3 µM | 13.4 µM | 13.2 µM | 5.7 µM | 0.354 µM | 0.404 µM | 0.323 µM | 0.317 µM | 0.396 µM | 0.277 µM | 0.329 µM | 0.527 µM | 0.725 µM | 0.378 µM
10 | CCSc1nnc2c(-c3ccccc3)n[nH]c2n1 | > 100 µM | > 100 µM | > 100 µM | > 100 µM | > 100 µM | > 100 µM | > 100 µM | > 100 µM | > 100 µM | > 100 µM |  |  |  |  |  |  |  |  |  | 
